The record followed here is article PMC11109252, “Synthetic aporphine alkaloids are potential therapeutics for Leigh syndrome” (Scientific Reports, 2024).

The test system of assay [1] is LS patient-derived skin fibroblasts. The experiment in a line: Anti-BSO-induced cell death activity assay. As to conditions: Homo sapiens, Skin fibroblast, 48 h, read-out: Anti-BSO-induced cell death effect EC50, co-added with BSO at a concentration giving 10%-20% cell viability; viable cells 48 h after addition.
The target in the next assay is T1, dopamine D2 receptors (Homo sapiens, UniProt P14416).
T1 construct: host or cells: CHO-K1 (GeneBLAzer D2-Gqo5-NFAT-bla)
In words: Dopamine D2 receptor agonist assay (GeneBLAzer D2-Gqo5-NFAT-bla CHO-K1 reporter). The format is cell-based. As to conditions: CHO cells stably expressing dopamine D2 receptors; NA: no activity; read-out: Dopamine D2 receptor agonist (DA) activity EC50. As for the experimental part: CHO-K1 cells were spread in 384-well plates at 10,000 cells/32 μL/well, taking care not to touch the bottom of the wells. Cell-free-wells were injected with the same volume (32 μL) of assay medium. The plates were then incubated in a CO2 incubator for 16–20 h. […] The diluted solution (8 μL/well) was added to 384-well plates seeded with CHO-K1 cells and incubated in a CO2 incubator for 5 h. […] The addition of the drug induces D2 receptor activation, which activates signaling pathways and transcription factors, resulting in the expression of a reporter gene (β-lactamase) and cleavage of the fluorescence resonance energy transfer (FRET) substrate, causing the fluorescence to change from green to blue.

A further assay deals with GDF-15. In words: GDF-15 levels in the cell supernatant (ELISA). The settings on record: 24 h after co-administration with RSL3, compared to RSL3-only. The format is cell-based, human. How it is done:
GDF-15 is a biomarker that is elevated in the blood of patients with mitochondrial diseases and is used for the diagnosis of mitochondrial diseases and determination of therapeutic efficacy[26],[36]. […] As previously reported, GDF-15 levels were measured by an enzyme-linked immuno sorbent assay (ELISA) using the Quantikin Human GDF-15 ELISA Kit (R&D Systems, Minneapolis, MN, USA). Samples were obtained from anti-RSL3-induced cell death assays with candidate compounds (D31, D55, and D40), and cell supernatants 24 h after reagent addition were used for the assay. Measured values were calculated with reference to internal standards and compared to GDF-15 values.

pEC50: −log10 of the molar value.

T1 sequence (P14416 whole entry): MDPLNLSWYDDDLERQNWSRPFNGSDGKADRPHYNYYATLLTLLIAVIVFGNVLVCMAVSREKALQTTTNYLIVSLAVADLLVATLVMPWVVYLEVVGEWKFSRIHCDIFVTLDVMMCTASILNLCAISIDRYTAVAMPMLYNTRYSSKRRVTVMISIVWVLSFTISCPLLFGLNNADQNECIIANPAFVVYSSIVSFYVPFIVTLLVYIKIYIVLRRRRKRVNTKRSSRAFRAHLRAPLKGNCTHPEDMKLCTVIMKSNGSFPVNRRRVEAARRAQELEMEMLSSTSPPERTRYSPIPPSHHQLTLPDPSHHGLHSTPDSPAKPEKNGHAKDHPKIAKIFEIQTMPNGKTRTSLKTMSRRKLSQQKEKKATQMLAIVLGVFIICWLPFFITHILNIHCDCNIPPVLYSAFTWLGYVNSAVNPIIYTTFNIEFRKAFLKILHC

For `CCCN1CCc2cccc3c2[C@H]1Cc1ccc(O)c(O)c1-3` [D3, (9R)-10-propyl-10-azatetracyclo[7.7.1.0²,⁷.0¹³,¹⁷]heptadeca-1(17),2,4,6,13,15-hexaene-3,4-diol], the pEC50 in assay [1] is 6.73. Take `Oc1ccc2c(c1O)-c1cccc3c1[C@@H](C2)NCC3` [D4, (9R)-10-azatetracyclo[7.7.1.0²,⁷.0¹³,¹⁷]heptadeca-1(17),2,4,6,13,15-hexaene-3,4-diol]: the pEC50 on dopamine D2 receptors was 6.24; in assay [1] it was 5.70.

Turning to `CCCN1CCc2cccc3c2[C@H]1Cc1ccc2c(c1-3)OCO2` [D5, (12R)-13-propyl-4,6-dioxa-13-azapentacyclo[10.7.1.0²,¹⁰.0³,⁷.0¹⁶,²⁰]icosa-1(20),2,7,9,16,18-hexaene], the pEC50 in assay [1] was 5.68. Still for that read-out and setting: the same measure for `COc1ccc2c(c1OC)C[C@@H]1c3c(cc4c(c3-2)OCO4)CCN1C` [D8, (12R)-15,16-dimethoxy-11-methyl-3,5-dioxa-11-azapentacyclo[10.7.1.0²,⁶.0⁸,²⁰.0¹⁴,¹⁹]icosa-1(20),2(6),7,14,16,18-hexaene]: 6.74; for `COc1cccc2c1C[C@@H]1c3c(cc4c(c3-2)OCO4)CCN1C` [D9, (12R)-15-methoxy-11-methyl-3,5-dioxa-11-azapentacyclo[10.7.1.0²,⁶.0⁸,²⁰.0¹⁴,¹⁹]icosa-1(20),2(6),7,14,16,18-hexaene]: 6.41.

In the case of `COc1cc(O)c2c(c1)C[C@@H]1c3c(cc4c(c3-2)OCO4)CCN1C` [D10, (12R)-16-methoxy-11-methyl-3,5-dioxa-11-azapentacyclo[10.7.1.0²,⁶.0⁸,²⁰.0¹⁴,¹⁹]icosa-1(20),2(6),7,14,16,18-hexaen-18-ol], in assay [1], the pEC50 was 6.12. For the compound `COc1cc2c(cc1OC)-c1c(OC)c(OC)cc3c1[C@@H](C2)N(C)CC3` [D11, (9R)-4,5,15,16-tetramethoxy-10-methyl-10-azatetracyclo[7.7.1.0²,⁷.0¹³,¹⁷]heptadeca-1(17),2,4,6,13,15-hexaene], the pEC50 in assay [1] was 5.16. As for `CN1CCc2cccc3c2[C@H]1Cc1ccc(O)c(O)c1-3` [D15, (9R)-10-methyl-10-azatetracyclo[7.7.1.0²,⁷.0¹³,¹⁷]heptadeca-1(17),2,4,6,13,15-hexaene-3,4-diol, reference compound], the pEC50 in assay [1] is 6.21.

As to `CN1CCc2cc3c(c4c2[C@@H]1Cc1ccccc1-4)OCO3` [D18, (12S)-11-methyl-3,5-dioxa-11-azapentacyclo[10.7.1.0²,⁶.0⁸,²⁰.0¹⁴,¹⁹]icosa-1(20),2(6),7,14,16,18-hexaene], the pEC50 in assay [1] was 6.31.

As for `COc1cc2c(cc1O)C[C@@H]1c3c(cc(O)c(OC)c3-2)CCN1C` [D19, (9R)-4,16-dimethoxy-10-methyl-10-azatetracyclo[7.7.1.0²,⁷.0¹³,¹⁷]heptadeca-1(17),2,4,6,13,15-hexaene-5,15-diol], the pEC50 in assay [1] is 5.29. Same read-out and setting: the same measure for `COc1cc2c(cc1OC)-c1c3c(c(OC)c4c1C(C2)N(C)CC4)OCO3` (centres unmarked) [D20, 7,16,17-trimethoxy-11-methyl-3,5-dioxa-11-azapentacyclo[10.7.1.0²,⁶.0⁸,²⁰.0¹⁴,¹⁹]icosa-1(20),2(6),7,14,16,18-hexaene]: 6.10; for `CN1CCc2cccc3c2[C@@H]1Cc1ccc(O)c(O)c1-3` [D24, (9S)-10-methyl-10-azatetracyclo[7.7.1.0²,⁷.0¹³,¹⁷]heptadeca-1(17),2(7),3,5,13,15-hexaene-3,4-diol]: 5.99. In the case of `COc1cc2c(cc1O)CC1NCCc3cc(OC)c(OC)c-2c31` (centres unmarked) [D25, 4,15,16-trimethoxy-10-azatetracyclo[7.7.1.0²,⁷.0¹³,¹⁷]heptadeca-1(17),2(7),3,5,13,15-hexaen-5-ol], in assay [1], the pEC50 is 5.69. As for `COc1cc2c3c(c1O)-c1c(ccc(OC)c1OC)C[C@H]3N(C)CC2` [D26, (9R)-3,4,15-trimethoxy-10-methyl-10-azatetracyclo[7.7.1.0²,⁷.0¹³,¹⁷]heptadeca-1(17),2,4,6,13,15-hexaen-16-ol], the pEC50 in assay [1] was 6.54. For the compound `CN1CCc2cccc3c2[C@H]1Cc1ccc(OCCCN)c(O)c1-3` [D27, (9R)-4-(3-aminopropoxy)-10-methyl-10-azatetracyclo[7.7.1.0²,⁷.0¹³,¹⁷]heptadeca-1(17),2,4,6,13,15-hexaen-3-ol], the pEC50 is 6.60 at dopamine D2 receptors and 6.66 in assay [1].

On to `CCCCOc1ccc2c(c1O)-c1cccc3c1[C@@H](C2)N(C)CC3` [D36, (9R)-4-butoxy-10-methyl-10-azatetracyclo[7.7.1.0²,⁷.0¹³,¹⁷]heptadeca-1(17),2,4,6,13,15-hexaen-3-ol], for which the pEC50 in assay [1] was 6.91.

Regarding `CN1CCc2cccc3c2[C@H]1Cc1ccc(OCCCc2ccccc2)c(O)c1-3` [D37, (9R)-10-methyl-4-(3-phenylpropoxy)-10-azatetracyclo[7.7.1.0²,⁷.0¹³,¹⁷]heptadeca-1(17),2,4,6,13,15-hexaen-3-ol], the pEC50 in assay [1] is 6.73. `CN1CCc2cccc3c2[C@H]1Cc1ccc(OCCCO)c(O)c1-3` [D38, (9R)-4-(3-hydroxypropoxy)-10-methyl-10-azatetracyclo[7.7.1.0²,⁷.0¹³,¹⁷]heptadeca-1(17),2,4,6,13,15-hexaen-3-ol]: the pEC50 on dopamine D2 receptors is 5.44; in assay [1], 6.78. For the compound `CN1CCc2cccc3c2[C@H]1Cc1ccc(OCCCCl)c(O)c1-3` [D39, (9R)-4-(3-chloropropoxy)-10-methyl-10-azatetracyclo[7.7.1.0²,⁷.0¹³,¹⁷]heptadeca-1(17),2,4,6,13,15-hexaen-3-ol], the pEC50 in assay [1] is 6.59. On to `CCCCCCCCCOc1ccc2c(c1O)-c1cccc3c1[C@@H](C2)N(C)CC3` [D41, (9R)-10-methyl-4-(nonyloxy)-10-azatetracyclo[7.7.1.0²,⁷.0¹³,¹⁷]heptadeca-1(17),2,4,6,13,15-hexaen-3-ol], for which the pEC50 in assay [1] was 6.19. `CN1CCc2cccc3c2[C@H]1Cc1ccc(OCCCC(F)(F)F)c(O)c1-3` [D42, (9R)-10-methyl-4-(4,4,4-trifluorobutoxy)-10-azatetracyclo[7.7.1.0²,⁷.0¹³,¹⁷]heptadeca-1(17),2,4,6,13,15-hexaen-3-ol]: in assay [1], the pEC50 was 6.78. In the case of `CN1CCc2cccc3c2[C@H]1Cc1ccc(OCc2ccccc2)c(O)c1-3` [D47, (9R)-4-(benzyloxy)-10-methyl-10-azatetracyclo[7.7.1.0²,⁷.0¹³,¹⁷]heptadeca-1(17),2,4,6,13,15-hexaen-3-ol], the pEC50 in assay [1] is 6.91.

Turning to `CN1CCc2cccc3c2[C@H]1Cc1ccc(OCCc2ccccc2)c(O)c1-3` [D48, (9R)-10-methyl-4-(2-phenylethoxy)-10-azatetracyclo[7.7.1.0²,⁷.0¹³,¹⁷]heptadeca-1(17),2,4,6,13,15-hexaen-3-ol], the pEC50 in assay [1] is 6.89. With `CN1CCc2cccc3c2[C@H]1Cc1ccc(OCCCCc2ccccc2)c(O)c1-3` [D50, (9R)-10-methyl-4-(4-phenylbutoxy)-10-azatetracyclo[7.7.1.0²,⁷.0¹³,¹⁷]heptadeca-1(17),2,4,6,13,15-hexaen-3-ol], the pEC50 in assay [1] is 6.68. For the compound `CN1CCc2cccc3c2[C@H]1Cc1ccc(OCCC(c2ccccc2)c2ccccc2)c(O)c1-3` [D54, (9R)-4-(3,3-diphenylpropoxy)-10-methyl-10-azatetracyclo[7.7.1.0²,⁷.0¹³,¹⁷]heptadeca-1(17),2,4,6,13,15-hexaen-3-ol], the pEC50 in assay [1] was 6.30. In the case of `CCOC(=O)c1ccc(NC2CCCCC2)c(N)c1` [ferrostatin-1, reference compound], the “GDF-15 elevation in cell supernatant” value in the assay with GDF-15 was “significant decrease”.
